Paper doi:10.1101/390401v1, “Flux balance analysis predicts NADP phosphatase and NADH kinase are critical to balancing redox during xylose fermentation in Scheffersomyces stipitis” (biorxiv, 2018)

Biological target: T1, K. phaffii Adh2p (Komagataella pastoris, UniProt A0A1B2JBQ8)
T1 construct: gene ADH2; purified natively from wild-type K. phaffii; 40 kDa band
T1 sequence (A0A1B2JBQ8 1-350): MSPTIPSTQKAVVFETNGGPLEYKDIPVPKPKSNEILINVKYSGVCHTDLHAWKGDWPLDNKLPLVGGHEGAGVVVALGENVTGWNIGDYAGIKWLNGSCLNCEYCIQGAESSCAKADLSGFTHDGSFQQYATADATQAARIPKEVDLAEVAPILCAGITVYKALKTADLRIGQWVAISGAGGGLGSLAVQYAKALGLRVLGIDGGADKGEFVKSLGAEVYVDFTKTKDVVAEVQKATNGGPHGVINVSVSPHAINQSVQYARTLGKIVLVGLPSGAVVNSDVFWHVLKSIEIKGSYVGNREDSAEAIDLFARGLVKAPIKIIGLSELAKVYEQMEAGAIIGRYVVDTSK
Test: NADH and NADPH oxidation at […] nm
Type: biochemical
Settings: 0.01-10 mM butyraldehyde, NADH or NADPH, 1 mM ZnCl2, 50 mM HEPES pH 7.5, 30 C

| Compound | NADH and NADPH oxidation at 340 nm |
| --- | --- |
| NC(=O)C1=CN([C@@H]2O[C@H](COP(=O)(O)OP(=O)(O)OC[C@H]3O[C@@H](n4cnc5c(N)ncnc54)[C@H](O)[C@@H]3O)[C@@H](O)[C@H]2O)C=CC1 [NADH] | Both NADH and NADPH reduced butyraldehyde |
| CCCC=O [butyraldehyde] | Both NADH and NADPH reduced butyraldehyde |
